Assay results reported in patent US6114310A, “Efflux pump inhibitors” (priority 1998, dated 2000).

System: Pseudomonas aeruginosa PAM1001
Assay: microbe, parasite or virus in culture
Type: cell-based
Description: The activity of efflux pump inhibitors (EPI) in combination with fluoroquinolones, such as levofloxacin, is assessed by the checkerboard assay (Antimicrobial Combinations. In Antibiotics in Laboratory Medicine, Ed. Victor Lorian, M. D., Fourth edition, 1996, pp 333-338) using broth microdilution method performed as recommended by the NCCLS (National Committee for Clinical Laboratory Standards (NCCLS). 1997. Methods for Dilution of Antimicrobial Susceptibility Tests for Bacteria That Grow Aerobically--Fourth Edition; Approved Standard. NCCLS Document M7-A4, Vol 17 No.2). The test organism used is Pseudomonas aeruginosa PAM1001.
In this assay, multiple dilutions of two drugs, namely the EPI and levofloxacin, are being tested, alone and in combination, at concentrations equal to, above and below their respective minimal inhibitory concentrations (MICs).
Stock solutions are further diluted, according to the needs of a particular assay, in Mueller Hinton Broth (MHB). Stock solution can be stored at -80° C. Quinolones are solubilized according to the instructions of the manufacturers, at a concentration of 1 mg/ml. They are then further diluted in MHB. Stock solution can be stored at -80° C.
The checkerboard assay is performed in microtiter plates. Levofloxacin is diluted in the x axis, each column containing a single concentration of levofloxacin. The EPI is diluted in the y axis, each row containing an equal concentration of EPI. The result of these manipulations is that each well of the microtiter plate contains a unique combination of concentrations of the two agents. Each EPI are tested independently.
The assay is performed in MHB with a final bacterial inoculum of 5×10^5 CFU/ml (from an early-log phase culture). Microtiter plates are incubated during 20 h at 35° C. and are read using a microtiterplate reader (Molecular Devices) at 650 nm as well as visual observation using a microtiterplate reading mirror.

[1] = Table 1, EPI Conc. μg/ml (number not given; column between 10 and 40 μg/ml)
[2] = Table 2, EPI Conc. μg/ml (number not given; column between 10 and 40 μg/ml)
[3] = Table 3, EPI Conc. μg/ml (number not given; column between 10 and 40 μg/ml)
[4] = Table 4, EPI Conc. μg/ml (number not given; column between 10 and 40 μg/ml)

| Substance | Levofloxacin MIC Against P. aeruginosa PAM1001 in Presence of Efflux Pump Inhibitor (EPI), Minimum Inhibitory Concentration (Table 1, EPI Conc. 0 μg/ml) | Levofloxacin MIC Against P. aeruginosa PAM1001 in Presence of Efflux Pump Inhibitor (EPI), Minimum Inhibitory Concentration (Table 1, EPI Conc. 0.625 μg/ml) | Levofloxacin MIC Against P. aeruginosa PAM1001 in Presence of Efflux Pump Inhibitor (EPI), Minimum Inhibitory Concentration (Table 1, EPI Conc. 5 μg/ml) | Levofloxacin MIC Against P. aeruginosa PAM1001 in Presence of Efflux Pump Inhibitor (EPI), Minimum Inhibitory Concentration (Table 1, EPI Conc. 10 μg/ml) | Levofloxacin MIC Against P. aeruginosa PAM1001 in Presence of Efflux Pump Inhibitor (EPI), Minimum Inhibitory Concentration (Table 1, EPI Conc. 40 μg/ml) | Levofloxacin MIC Against P. aeruginosa PAM1001 in Presence of Efflux Pump Inhibitor (EPI), Minimum Inhibitory Concentration [1] | Levofloxacin MIC Against P. aeruginosa PAM1001 in Presence of Efflux Pump Inhibitor (EPI), Minimum Inhibitory Concentration (Table 2, EPI Conc. 0 μg/ml) | Levofloxacin MIC Against P. aeruginosa PAM1001 in Presence of Efflux Pump Inhibitor (EPI), Minimum Inhibitory Concentration (Table 2, EPI Conc. 0.625 μg/ml) | Levofloxacin MIC Against P. aeruginosa PAM1001 in Presence of Efflux Pump Inhibitor (EPI), Minimum Inhibitory Concentration (Table 2, EPI Conc. 5 μg/ml) | Levofloxacin MIC Against P. aeruginosa PAM1001 in Presence of Efflux Pump Inhibitor (EPI), Minimum Inhibitory Concentration (Table 2, EPI Conc. 10 μg/ml) | Levofloxacin MIC Against P. aeruginosa PAM1001 in Presence of Efflux Pump Inhibitor (EPI), Minimum Inhibitory Concentration (Table 2, EPI Conc. 40 μg/ml) | Levofloxacin MIC Against P. aeruginosa PAM1001 in Presence of Efflux Pump Inhibitor (EPI), Minimum Inhibitory Concentration (Table 2, EPI Conc. […]) | Levofloxacin MIC Against P. aeruginosa PAM1001 in Presence of Efflux Pump Inhibitor (EPI), Minimum Inhibitory Concentration [2] | Levofloxacin MIC Against P. aeruginosa PAM1001 in Presence of Efflux Pump Inhibitor (EPI), Minimum Inhibitory Concentration (Table 3, EPI Conc. 0 μg/ml) | Levofloxacin MIC Against P. aeruginosa PAM1001 in Presence of Efflux Pump Inhibitor (EPI), Minimum Inhibitory Concentration (Table 3, EPI Conc. 0.625 μg/ml) | Levofloxacin MIC Against P. aeruginosa PAM1001 in Presence of Efflux Pump Inhibitor (EPI), Minimum Inhibitory Concentration (Table 3, EPI Conc. 5 μg/ml) | Levofloxacin MIC Against P. aeruginosa PAM1001 in Presence of Efflux Pump Inhibitor (EPI), Minimum Inhibitory Concentration (Table 3, EPI Conc. 10 μg/ml) | Levofloxacin MIC Against P. aeruginosa PAM1001 in Presence of Efflux Pump Inhibitor (EPI), Minimum Inhibitory Concentration (Table 3, EPI Conc. 40 μg/ml) | Levofloxacin MIC Against P. aeruginosa PAM1001 in Presence of Efflux Pump Inhibitor (EPI), Minimum Inhibitory Concentration [3] | Levofloxacin MIC Against P. aeruginosa PAM1001 in Presence of Efflux Pump Inhibitor (EPI), Minimum Inhibitory Concentration (Table 4, EPI Conc. 0 μg/ml) | further results |
| --- | --- | --- | --- | --- | --- | --- | --- | --- | --- | --- | --- | --- | --- | --- | --- | --- | --- | --- | --- | --- | --- |
| D-Ornithyl-β-(N-cyclohexylmethyl)alanine 2-naphthylamide [Compound 17 (Table 3)] | 4 µg/mL | 4 µg/mL | 0.06 µg/mL | 0.06 µg/mL | 0.015 µg/mL | 0.03 µg/mL | 4 µg/mL | 4 µg/mL | 4 µg/mL | 0.50 µg/mL | 0.015 µg/mL | 4 µg/mL | 0.06 µg/mL | 4 µg/mL | 4 µg/mL | 2 µg/mL | 0.50 µg/mL | 0.125 µg/mL | 0.125 µg/mL | 4 µg/mL | Levofloxacin MIC Against P. aeruginosa PAM1001 in Presence of Efflux Pump Inhibitor (EPI), Minimum Inhibitory Concentration (Table 1, EPI Conc. […]): 4 µg/mL; Levofloxacin MIC Against P. aeruginosa PAM1001 in Presence of Efflux Pump Inhibitor (EPI), Minimum Inhibitory Concentration (Table 3, EPI Conc. […]): 4 µg/mL; Levofloxacin MIC Against P. aeruginosa PAM1001 in Presence of Efflux Pump Inhibitor (EPI), Minimum Inhibitory Concentration (Table 4, EPI Conc. 0.625 μg/ml): 4 µg/mL; Levofloxacin MIC Against P. aeruginosa PAM1001 in Presence of Efflux Pump Inhibitor (EPI), Minimum Inhibitory Concentration (Table 4, EPI Conc. 5 μg/ml): 4 µg/mL; Levofloxacin MIC Against P. aeruginosa PAM1001 in Presence of Efflux Pump Inhibitor (EPI), Minimum Inhibitory Concentration (Table 4, EPI Conc. 10 μg/ml): 2 µg/mL; Levofloxacin MIC Against P. aeruginosa PAM1001 in Presence of Efflux Pump Inhibitor (EPI), Minimum Inhibitory Concentration (Table 4, EPI Conc. 40 μg/ml): 0.125 µg/mL; Levofloxacin MIC Against P. aeruginosa PAM1001 in Presence of Efflux Pump Inhibitor (EPI), Minimum Inhibitory Concentration (Table 4, EPI Conc. […]): 4 µg/mL; Levofloxacin MIC Against P. aeruginosa PAM1001 in Presence of Efflux Pump Inhibitor (EPI), Minimum Inhibitory Concentration [4]: 1 µg/mL |
| D-Ornithyl-β-N-(Cyclopropylmethyl)alanine Quinoline-2-amide Trifluoroacetate [Example 28] | 4 µg/mL | 4 µg/mL | 2 µg/mL | 1 µg/mL | 0.125 µg/mL | 0.06 µg/mL | 4 µg/mL | 4 µg/mL | 1 µg/mL | 0.50 µg/mL | 0.125 µg/mL | 4 µg/mL | 0.25 µg/mL | 4 µg/mL | 4 µg/mL | 0.015 µg/mL | 0.008 µg/mL | 0.015 µg/mL | 0.015 µg/mL | 4 µg/mL | Levofloxacin MIC Against P. aeruginosa PAM1001 in Presence of Efflux Pump Inhibitor (EPI), Minimum Inhibitory Concentration (Table 1, EPI Conc. […]): 4 µg/mL; Levofloxacin MIC Against P. aeruginosa PAM1001 in Presence of Efflux Pump Inhibitor (EPI), Minimum Inhibitory Concentration (Table 4, EPI Conc. 0.625 μg/ml): 4 µg/mL; Levofloxacin MIC Against P. aeruginosa PAM1001 in Presence of Efflux Pump Inhibitor (EPI), Minimum Inhibitory Concentration (Table 4, EPI Conc. 5 μg/ml): 2 µg/mL; Levofloxacin MIC Against P. aeruginosa PAM1001 in Presence of Efflux Pump Inhibitor (EPI), Minimum Inhibitory Concentration (Table 4, EPI Conc. 10 μg/ml): 0.25 µg/mL; Levofloxacin MIC Against P. aeruginosa PAM1001 in Presence of Efflux Pump Inhibitor (EPI), Minimum Inhibitory Concentration (Table 4, EPI Conc. 40 μg/ml): 0.125 µg/mL; Levofloxacin MIC Against P. aeruginosa PAM1001 in Presence of Efflux Pump Inhibitor (EPI), Minimum Inhibitory Concentration [4]: 0.125 µg/mL |
| D-Ornithyl-β-(N-4-methylphenethyl)alanine quinoline-3-amide [Compound 32 (Table 3)] | 4 µg/mL | 4 µg/mL | 1 µg/mL | 0.25 µg/mL | 0.25 µg/mL | 0.25 µg/mL | 4 µg/mL | 4 µg/mL | 2 µg/mL | 0.50 µg/mL | 0.06 µg/mL | 4 µg/mL | 0.50 µg/mL | 4 µg/mL | 4 µg/mL | 0.25 µg/mL | 0.06 µg/mL | 0.015 µg/mL | 0.03 µg/mL | 4 µg/mL | Levofloxacin MIC Against P. aeruginosa PAM1001 in Presence of Efflux Pump Inhibitor (EPI), Minimum Inhibitory Concentration (Table 4, EPI Conc. 0.625 μg/ml): 4 µg/mL; Levofloxacin MIC Against P. aeruginosa PAM1001 in Presence of Efflux Pump Inhibitor (EPI), Minimum Inhibitory Concentration (Table 4, EPI Conc. 5 μg/ml): 1 µg/mL; Levofloxacin MIC Against P. aeruginosa PAM1001 in Presence of Efflux Pump Inhibitor (EPI), Minimum Inhibitory Concentration (Table 4, EPI Conc. 10 μg/ml): 0.06 µg/mL; Levofloxacin MIC Against P. aeruginosa PAM1001 in Presence of Efflux Pump Inhibitor (EPI), Minimum Inhibitory Concentration (Table 4, EPI Conc. 40 μg/ml): 0.06 µg/mL; Levofloxacin MIC Against P. aeruginosa PAM1001 in Presence of Efflux Pump Inhibitor (EPI), Minimum Inhibitory Concentration [4]: 0.06 µg/mL |
